{
  "source": "patent US11857513B2",
  "about": "“Selective inhibitor of exon 20 insertion mutant EGFR” (Taiho Pharmaceutical Co., Ltd., priority 2016, dated 2024)",
  "key": {"[1]": {"test_system": "H1975-EGFRinsSVD cells", "assay": "Antitumor effect, nude mice subcutaneously transplanted with H1975-EGFRinsSVD cells", "assay_type": "in vivo, mouse", "settings": "200 mg/kg orally once daily, 14 days", "method": "Nude mice were subcutaneously transplanted with NIH3T3-EGFRinsASV cells, NIH3T3-EGFRinsSVD cells, or H1975-EGFRinsSVD cells to which human mutant EGFR was introduced. At the point at which the tumor volume of the tumor engrafted in the nude mice grew to about 100 to 200 mm^3, the mice were allocated into groups, 5 to 6 mice for each group, by stratified randomization such that the average tumor volume between the groups was uniform.\nThe maximum tolerated dose was determined in accordance with the “Guidelines Involving Experimental Neoplasia Proposals in Mice and Rats” of the National Cancer Institute (NCI), from a humanitarian perspective.\nTo compare the changes in growth of tumor over time due to administration of the individual test compounds, a relative tumor volume (which hereinafter also referred to as “RTV”) was calculated based on the tumor volume at the time the mice were divided into groups (which is taken as 1 for the tumor growth ratio), using the following formula. For a toxicity index, the body weight was measured over time, and the average body weight change (which hereinafter also referred to as “BWC (%)”) from the day on which the mice were divided into groups was calculated in accordance with the following formula.\nRTV=(the tumor volume on the day a tumor volume was measured)/(the tumor volume on the day mice were divided into groups) […]"}, "[2]": {"molecular_target": "T1, EGFR with mutation D770_N771insSVD (Homo sapiens, UniProt P00533, INS770SVD)", "T1 construct": "expressed in transfected cells; host or cells: NCI-H1975 (human lung adenocarcinoma), PiggyBac PB-CMV-MCS-EF1-RFP+Puro vector, endogenous EGFR (T790M/L858R) knocked out by TALEN", "T1 sequence (P00533 with tags, fused parts or gaps INS770SVD)": "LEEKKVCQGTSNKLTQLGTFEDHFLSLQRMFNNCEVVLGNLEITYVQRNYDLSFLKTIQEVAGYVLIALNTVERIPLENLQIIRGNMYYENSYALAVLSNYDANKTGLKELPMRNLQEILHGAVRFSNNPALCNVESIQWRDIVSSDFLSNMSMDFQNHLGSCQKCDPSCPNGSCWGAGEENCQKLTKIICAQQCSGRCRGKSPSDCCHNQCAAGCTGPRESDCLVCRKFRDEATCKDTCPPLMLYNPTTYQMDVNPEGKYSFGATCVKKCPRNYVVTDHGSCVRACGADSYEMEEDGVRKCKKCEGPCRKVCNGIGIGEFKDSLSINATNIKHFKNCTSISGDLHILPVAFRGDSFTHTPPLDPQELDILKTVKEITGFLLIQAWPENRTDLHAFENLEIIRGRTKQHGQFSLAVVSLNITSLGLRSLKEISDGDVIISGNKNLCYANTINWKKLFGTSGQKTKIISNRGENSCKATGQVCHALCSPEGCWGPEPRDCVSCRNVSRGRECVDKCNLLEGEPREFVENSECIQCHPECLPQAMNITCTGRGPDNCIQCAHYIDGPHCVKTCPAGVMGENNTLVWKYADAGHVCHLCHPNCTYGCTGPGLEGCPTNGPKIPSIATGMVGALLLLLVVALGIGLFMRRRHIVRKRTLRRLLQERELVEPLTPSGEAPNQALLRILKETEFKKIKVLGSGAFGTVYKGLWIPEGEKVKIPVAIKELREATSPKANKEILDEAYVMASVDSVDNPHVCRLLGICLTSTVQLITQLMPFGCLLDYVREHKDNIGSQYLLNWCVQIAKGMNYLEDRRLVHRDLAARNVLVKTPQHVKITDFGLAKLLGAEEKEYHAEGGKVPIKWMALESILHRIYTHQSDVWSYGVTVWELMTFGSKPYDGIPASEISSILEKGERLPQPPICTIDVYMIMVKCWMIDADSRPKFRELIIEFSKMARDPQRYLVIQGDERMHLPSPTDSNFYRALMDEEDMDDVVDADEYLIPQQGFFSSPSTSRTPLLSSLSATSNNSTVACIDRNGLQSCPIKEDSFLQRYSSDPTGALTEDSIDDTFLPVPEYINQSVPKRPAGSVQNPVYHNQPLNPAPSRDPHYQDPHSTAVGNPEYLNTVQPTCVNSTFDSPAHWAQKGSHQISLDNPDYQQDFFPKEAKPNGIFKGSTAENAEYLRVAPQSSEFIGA", "assay": "Phosphorylated EGFR inhibitory activity in H1975-EGFRinsSVD cells (Simple Western)", "assay_type": "cell-based", "method": "A431 cells, which are human epithelial cancer cell lines overexpressing wild-type EGFR and H1975-EGFRinsSVD cells, which are human pulmonary adenocarcinoma cell lines expressing EGFR with mutation D770_N771insSVD by gene modification, were suspended in respective mediums. These cell suspensions were individually seeded into a 60-mm dish, and incubated in a 5% CO2-containing incubator at 37° C. for 1 day. Compound A was dissolved in DMSO, and diluted with DMSO such that the test compound has a concentration 1000 times higher than the final concentration. The DMSO solution of the test compound was diluted with each medium used for suspending the cells, and each diluted solution was added to respective culture dishes of the cells such that DMS 0 has a final concentration of 0.1%, followed by incubation in a 5% CO2-containing incubator at 37° C. for 6 hours. […] The concentration of the proteins were measured using a BCA protein assay kit (Thermo Fisher Scientific), and each sample was adjusted so as to have a protein concentration suitable for measurement of phosphorylated EGFR expression. The phosphorylated EGFR expression was measured using a Simple Western (trademark) assay system […]\nAdditionally, the selectivity for wild-type EGFR and EGFR exon 20 insertion mutation was calculated using the following formula. […]"}},
  "data": [
    {"smiles": "C=CC(=O)N[C@H]1C=C(C)c2c(-c3cnc4ccccc4c3)c3c(N)ncnc3n2C1", "note": "[Compound A, (S)—N-(4-amino-6-methyl-5-(quinolin-3-yl)-8,9-dihydropyrimido[5,4-b]indolizin-8-yl)acrylamide]", "values": [
      {"measurement": "T/C (%) on the final evaluation day", "setting": "[1]", "result": 6, "unit": "%"},
      {"measurement": "IC50", "setting": "[2]; H1975-EGFRinsSVD cells, 6 hours, Tyr1068", "result": 23, "unit": "nM"},
      {"measurement": "IC50 Ratio=IC50 (A431)/IC50 (H1975 EGFRinsSVD)", "setting": "[2]; phosphorylated EGFR", "result": 23.3}
    ]}
  ]
}
